The text below walks through data of ChEMBL document CHEMBL1137552, “Modifications of the chemical structure of terpenes in antiplasmodial and antifungal drug research” (Bioorg Med Chem Lett, 2007).

The test system of one experiment is Plasmodium falciparum. Nature of the experiment: Antiplasmodial activity after 48 hrs against chloroquine-resistant Plasmodium falciparum FcM29-Cameroon by [3H]hypoxanthine uptake. The format is functional, organism-based.
Experiment [1] deals with Candida albicans. Briefly: Antifungal activity against Candida albicans ATCC 90028 after 48 hrs. The format is functional. As to conditions: ATCC 90028, 48 h.
Experiment [2] relates to Candida albicans. Briefly: Antifungal activity against Candida albicans ATCC 90028 after 24 hrs. In kind it is functional. As to conditions: ATCC 90028, 24 h.

pIC50: −log10 of the molar value. Values after ≈ are worked out from the molar mass of the structure shown.

For the compound `C=C(C)[C@@H]1CC=C(CO)CC1` [PERILLYL ALCOHOL], the negative logarithm of the IC50 (pIC50) in the experiment with Plasmodium falciparum was 3.74. The MIC in the experiment on Candida albicans [1] and against Candida albicans [2] was over 200 µg/mL throughout.

Regarding `C=CC(C)(O)CCC=C(C)C` (stereo not drawn) [LINALOOL], the pIC50 with Plasmodium falciparum was 3.28. Further, the MIC in the experiment on Candida albicans [1] and in the experiment on Candida albicans [2] was over 200 µg/mL each time.

`CC(C)=CCC[C@@]1(C)OCC2=CC(=O)CC21` (stereo partly drawn): the pIC50 in the experiment with Plasmodium falciparum is 5.74. In addition, the MIC in the experiment on Candida albicans [1] and in the experiment on Candida albicans [2] was over 200 µg/mL in each case.

In the case of `C#CCO[C@@H]1C[C@H](C)CC[C@H]1C(=C)C`, the pIC50 in the experiment with Plasmodium falciparum was 4.51. Also, the MIC in the experiment with Candida albicans [1] and against Candida albicans [2] was over 200 µg/mL each time.

Turning to `C=C(C)[C@H]1CCC23COC=CC2C3C1` (stereo partly drawn), the pIC50 in the experiment with Plasmodium falciparum was under 4.00. Moreover, the MIC in the experiment on Candida albicans [1] and against Candida albicans [2] was over 200 µg/mL each time.

In the experiment with Plasmodium falciparum, `C=CC1=C(C)[C@@H]2CC[C@@H](C)C[C@H]2OC1` showed a pIC50 of under 4.00. Moreover, the MIC in the experiment on Candida albicans [1] and in the experiment on Candida albicans [2] was over 200 µg/mL throughout.

Take `C#CCOCC1=CC[C@@H](C(=C)C)CC1`: the pIC50 in the experiment with Plasmodium falciparum is 4.48. Further, the MIC against Candida albicans [1] and against Candida albicans [2] was over 200 µg/mL each time.

In turn, `CC(C)=CCC/C(C)=C/CO` [GERANIOL] had a pIC50 with Plasmodium falciparum of 4.28. Also, the MIC in the experiment on Candida albicans [1] and with Candida albicans [2] was over 200 µg/mL in each case.

Regarding `CC1CC(=O)O[C@@H]2C[C@H](C)CC[C@@H]12` (stereo partly drawn), the pIC50 in the experiment with Plasmodium falciparum is 3.33. Besides, the MIC in the experiment with Candida albicans [1] and in the experiment with Candida albicans [2] was over 200 µg/mL throughout.

`C=C(C)[C@H]1CC=C(C)CC1` [D-LIMONENE] gave a pIC50 with Plasmodium falciparum of 4.18. Also, the MIC with Candida albicans [1] and in the experiment with Candida albicans [2] was over 200 µg/mL in each case.

As for `Nc1nc(=O)[nH]cc1F` [FLUCYTOSINE], it took 0.75 µg/mL (≈ 5.81 µM) to inhibit growth with Candida albicans [1] (MIC).

On to `C#CCOC/C=C(\C)CCC=C(C)C`, for which the pIC50 with Plasmodium falciparum is 3.91. Besides, the MIC against Candida albicans [1] and in the experiment on Candida albicans [2] was over 200 µg/mL in each case.

`CC(C)=CCCC(C)CCO` (stereo not drawn) [CITRONELLOL] gave a pIC50 with Plasmodium falciparum of 3.72. The MIC against Candida albicans [1] and against Candida albicans [2] was over 200 µg/mL each time.

The compound `C#CCO[C@@](C)(C=C)CCC=C(C)C` showed a pIC50 in the experiment on Plasmodium falciparum of 4.41. In addition, the minimal inhibitory concentration (MIC) against Candida albicans [1] and with Candida albicans [2] was over 200 µg/mL in each case.

Regarding `CCN(CC)CCCC(C)Nc1ccnc2cc(Cl)ccc12` (stereo not drawn) [CHLOROQUINE], the MIC in the experiment on Candida albicans [1] and in the experiment on Candida albicans [2] was over 200 µg/mL each time.

On to `C=C(C)[C@@H]1CC[C@@H](C)C[C@H]1O` [ISOPULEGOL], for which, in the experiment with Plasmodium falciparum, the pIC50 was 3.55. The MIC against Candida albicans [1] and against Candida albicans [2] was over 200 µg/mL each time.

`C[C@@H]1CC[C@H]2[C@@H](C)C(=O)O[C@@H]3O[C@@]4(C)CC[C@@H]1[C@]32OO4` [ARTEMISININ] had a pIC50 with Plasmodium falciparum of 8.15. Besides, the MIC with Candida albicans [1] and against Candida albicans [2] was over 200 µg/mL each time.
